Legend:
[1] = biological target: Macrophage-stimulating protein receptor (Homo sapiens) (UniProt Q04912); conditions: Compound concentration 1000.0 nM
[2] = biological target: Eukaryotic translation initiation factor 2-alpha kinase 1 (Homo sapiens) (UniProt Q9BQI3); conditions: Compound concentration 1000.0 nM
[3] = biological target: Calcium/calmodulin-dependent protein kinase type 1G (Homo sapiens) (UniProt Q96NX5); conditions: Compound concentration 1000.0 nM
[4] = biological target: NUAK family SNF1-like kinase 1 (Homo sapiens) (UniProt O60285); conditions: Compound concentration 1000.0 nM
[5] = biological target: Tyrosine-protein kinase Yes (Homo sapiens) (UniProt P07947); conditions: Compound concentration 1000.0 nM
[6] = biological target: T1, GABA-A receptor; anion channel (Rattus norvegicus) (UniProt O09028+P15431+P18506+P18508+P19969+P20236+P23574+P23576+P28471+P28473+P30191+P62813+P63079+P63138+Q91ZM7+Q9ES14); conditions: Compound concentration 10.0 uM
[7] = biological target: Serine/threonine-protein kinase OSR1 (Homo sapiens) (UniProt O95747); conditions: Compound concentration 1000.0 nM
[8] = biological target: Myosin-IIIb (Homo sapiens) (UniProt Q8WXR4); conditions: Compound concentration 1000.0 nM
[9] = biological target: Mast/stem cell growth factor receptor Kit (Homo sapiens) (UniProt P10721); conditions: Compound concentration 1000.0 nM
[10] = biological target: Mitogen-activated protein kinase kinase kinase 20 (Homo sapiens) (UniProt Q9NYL2); conditions: Compound concentration 1000.0 nM
[11] = biological target: Tyrosine-protein kinase CSK (Homo sapiens) (UniProt P41240); conditions: Compound concentration 1000.0 nM
[12] = biological target: Microtubule-associated serine/threonine-protein kinase 1 (Homo sapiens) (UniProt Q9Y2H9); conditions: Compound concentration 1000.0 nM
[13] = biological target: Ribosomal protein S6 kinase alpha-1 (Homo sapiens) (UniProt Q15418); conditions: Compound concentration 1000.0 nM
[14] = biological target: Ribosomal protein S6 kinase beta-1 (Homo sapiens) (UniProt P23443); conditions: Compound concentration 1000.0 nM
[15] = biological target: Activin receptor type-2A (Homo sapiens) (UniProt P27037); conditions: Compound concentration 1000.0 nM
[16] = biological target: Platelet-derived growth factor receptor beta (Homo sapiens) (UniProt P09619); conditions: Compound concentration 1000.0 nM
[17] = biological target: Cyclin-dependent kinase 15 (Homo sapiens) (UniProt Q96Q40); conditions: Compound concentration 1000.0 nM
[18] = biological target: Tyrosine-protein kinase BTK (Homo sapiens) (UniProt Q06187); conditions: Compound concentration 1000.0 nM
[19] = biological target: Tyrosine-protein kinase receptor Tie-1 (Homo sapiens) (UniProt P35590); conditions: Compound concentration 1000.0 nM
[20] = biological target: Serine/threonine-protein kinase LATS2 (Homo sapiens) (UniProt Q9NRM7); conditions: Compound concentration 1000.0 nM
[21] = system: Epidermal growth factor receptor (Homo sapiens), P00533 [UNDEFINED MUTATION]; conditions: Compound concentration 1000.0 nM
[22] = biological target: Serine/threonine-protein kinase PAK 4 (Homo sapiens) (UniProt O96013); conditions: Compound concentration 1000.0 nM
[23] = system: Tyrosine-protein kinase ABL1 (Homo sapiens), P00519 [Q252H]; conditions: Compound concentration 1000.0 nM
[24] = biological target: T1, GABA-A receptor; anion channel (Rattus norvegicus); conditions: Compound concentration 10.0 uM; remark: listed apart in the source
[25] = system: Fibroblast growth factor receptor 3 (Homo sapiens), P22607 [G697C]; conditions: Compound concentration 1000.0 nM
[26] = biological target: Mitogen-activated protein kinase 9 (Homo sapiens) (UniProt P45984); conditions: Compound concentration 1000.0 nM
[27] = biological target: Myosin light chain kinase (Homo sapiens) (UniProt Q32MK0); conditions: Compound concentration 1000.0 nM
[28] = biological target: 5-hydroxytryptamine receptor 1E (Homo sapiens) (UniProt P28566); conditions: Compound concentration 10.0 uM
[29] = biological target: Serine/threonine-protein kinase DCLK2 (Homo sapiens) (UniProt Q8N568); conditions: Compound concentration 1000.0 nM
[30] = biological target: MAP kinase-interacting serine/threonine-protein kinase 1 (Homo sapiens) (UniProt Q9BUB5); conditions: Compound concentration 1000.0 nM
[31] = biological target: Serine/threonine-protein kinase TAO2 (Homo sapiens) (UniProt Q9UL54); conditions: Compound concentration 1000.0 nM
[32] = system: Tyrosine-protein kinase ABL1 (Homo sapiens), P00519 [Y253F]; conditions: Compound concentration 1000.0 nM
[33] = biological target: Dual specificity protein kinase CLK2 (Homo sapiens) (UniProt P49760); conditions: Compound concentration 1000.0 nM
[34] = biological target: Phosphatidylinositol 4,5-bisphosphate 3-kinase catalytic subunit gamma isoform (Homo sapiens) (UniProt P48736); conditions: Compound concentration 1000.0 nM
[35] = biological target: Receptor tyrosine-protein kinase erbB-4 (Homo sapiens) (UniProt Q15303); conditions: Compound concentration 1000.0 nM
[36] = biological target: Calcium/calmodulin-dependent protein kinase type 1B (Homo sapiens) (UniProt Q6P2M8); conditions: Compound concentration 1000.0 nM
[37] = biological target: Epidermal growth factor receptor (Homo sapiens) (UniProt P00533); conditions: Compound concentration 1000.0 nM
[38] = biological target: Tyrosine-protein kinase SYK (Homo sapiens) (UniProt P43405); conditions: Compound concentration 1000.0 nM
[39] = biological target: Serine/threonine-protein kinase N1 (Homo sapiens) (UniProt Q16512); conditions: Compound concentration 1000.0 nM
[40] = biological target: Serine/threonine-protein kinase Sgk2 (Homo sapiens) (UniProt Q9HBY8); conditions: Compound concentration 1000.0 nM
[41] = biological target: Dual specificity tyrosine-phosphorylation-regulated kinase 1B (Homo sapiens) (UniProt Q9Y463); conditions: Compound concentration 1000.0 nM
[42] = biological target: Dual specificity protein kinase CLK1 (Homo sapiens) (UniProt P49759); conditions: Compound concentration 1000.0 nM

Chain of Tyrosine-protein kinase CSK (Homo sapiens) (P41240 2-450 limits assumed): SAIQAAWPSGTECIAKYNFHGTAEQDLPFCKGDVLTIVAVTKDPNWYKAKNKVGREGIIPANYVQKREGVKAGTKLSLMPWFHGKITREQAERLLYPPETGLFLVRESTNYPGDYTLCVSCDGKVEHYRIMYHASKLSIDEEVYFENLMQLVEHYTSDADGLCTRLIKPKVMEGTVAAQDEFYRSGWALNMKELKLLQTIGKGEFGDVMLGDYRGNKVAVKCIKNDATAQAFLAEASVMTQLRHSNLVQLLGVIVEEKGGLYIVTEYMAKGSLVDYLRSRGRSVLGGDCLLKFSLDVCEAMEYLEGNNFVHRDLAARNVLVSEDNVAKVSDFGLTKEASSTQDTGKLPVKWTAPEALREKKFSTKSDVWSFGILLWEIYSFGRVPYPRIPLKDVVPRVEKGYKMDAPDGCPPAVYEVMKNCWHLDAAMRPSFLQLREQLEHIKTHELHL
Chain of 5-hydroxytryptamine receptor 1E (Homo sapiens) (P28566 whole entry): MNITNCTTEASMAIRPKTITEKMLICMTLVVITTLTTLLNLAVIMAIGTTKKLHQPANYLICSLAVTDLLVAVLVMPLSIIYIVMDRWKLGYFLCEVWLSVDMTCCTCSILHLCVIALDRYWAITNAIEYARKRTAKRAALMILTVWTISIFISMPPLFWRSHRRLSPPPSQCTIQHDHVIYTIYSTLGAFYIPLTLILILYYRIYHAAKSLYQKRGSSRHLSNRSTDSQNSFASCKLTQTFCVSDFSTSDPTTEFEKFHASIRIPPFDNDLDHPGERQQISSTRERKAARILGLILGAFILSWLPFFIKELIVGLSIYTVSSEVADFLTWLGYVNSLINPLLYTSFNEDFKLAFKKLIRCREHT
Chain of Receptor tyrosine-protein kinase erbB-4 (Homo sapiens) (Q15303 whole entry): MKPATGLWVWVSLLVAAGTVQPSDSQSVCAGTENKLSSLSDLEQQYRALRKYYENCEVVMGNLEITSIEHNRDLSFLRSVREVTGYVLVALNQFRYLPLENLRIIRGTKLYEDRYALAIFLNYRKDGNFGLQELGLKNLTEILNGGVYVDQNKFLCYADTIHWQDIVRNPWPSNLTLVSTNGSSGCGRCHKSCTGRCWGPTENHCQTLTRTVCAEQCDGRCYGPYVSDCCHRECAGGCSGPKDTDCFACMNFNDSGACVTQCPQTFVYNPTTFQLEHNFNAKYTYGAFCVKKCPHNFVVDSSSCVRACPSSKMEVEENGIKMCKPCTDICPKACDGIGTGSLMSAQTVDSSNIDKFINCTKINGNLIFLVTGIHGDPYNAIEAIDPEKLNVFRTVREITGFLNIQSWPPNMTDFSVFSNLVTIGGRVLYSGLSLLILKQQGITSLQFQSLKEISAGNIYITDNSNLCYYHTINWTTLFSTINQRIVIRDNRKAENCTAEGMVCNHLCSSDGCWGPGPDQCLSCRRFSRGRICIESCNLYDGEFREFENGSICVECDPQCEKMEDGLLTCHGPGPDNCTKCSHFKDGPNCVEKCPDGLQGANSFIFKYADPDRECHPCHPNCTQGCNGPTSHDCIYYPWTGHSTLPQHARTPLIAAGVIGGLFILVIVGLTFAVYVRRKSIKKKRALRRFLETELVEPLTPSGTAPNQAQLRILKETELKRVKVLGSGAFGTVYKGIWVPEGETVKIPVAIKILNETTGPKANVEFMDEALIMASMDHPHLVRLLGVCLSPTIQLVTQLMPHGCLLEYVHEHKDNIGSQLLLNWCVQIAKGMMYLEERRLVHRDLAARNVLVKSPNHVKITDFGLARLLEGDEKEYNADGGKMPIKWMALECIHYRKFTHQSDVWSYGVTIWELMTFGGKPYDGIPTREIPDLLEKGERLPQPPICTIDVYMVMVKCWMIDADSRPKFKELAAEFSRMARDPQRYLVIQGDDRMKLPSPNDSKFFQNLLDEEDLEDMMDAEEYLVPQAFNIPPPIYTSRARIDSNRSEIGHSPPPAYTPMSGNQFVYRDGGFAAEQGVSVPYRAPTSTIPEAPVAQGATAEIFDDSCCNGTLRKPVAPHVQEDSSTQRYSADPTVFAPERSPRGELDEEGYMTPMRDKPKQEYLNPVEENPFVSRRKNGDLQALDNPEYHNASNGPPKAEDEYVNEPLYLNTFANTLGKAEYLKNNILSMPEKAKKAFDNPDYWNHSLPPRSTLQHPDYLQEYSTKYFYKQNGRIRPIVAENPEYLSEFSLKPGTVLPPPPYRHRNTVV
Chain of Dual specificity protein kinase CLK2 (Homo sapiens) (P49760 whole entry, looked up, canonical isoform): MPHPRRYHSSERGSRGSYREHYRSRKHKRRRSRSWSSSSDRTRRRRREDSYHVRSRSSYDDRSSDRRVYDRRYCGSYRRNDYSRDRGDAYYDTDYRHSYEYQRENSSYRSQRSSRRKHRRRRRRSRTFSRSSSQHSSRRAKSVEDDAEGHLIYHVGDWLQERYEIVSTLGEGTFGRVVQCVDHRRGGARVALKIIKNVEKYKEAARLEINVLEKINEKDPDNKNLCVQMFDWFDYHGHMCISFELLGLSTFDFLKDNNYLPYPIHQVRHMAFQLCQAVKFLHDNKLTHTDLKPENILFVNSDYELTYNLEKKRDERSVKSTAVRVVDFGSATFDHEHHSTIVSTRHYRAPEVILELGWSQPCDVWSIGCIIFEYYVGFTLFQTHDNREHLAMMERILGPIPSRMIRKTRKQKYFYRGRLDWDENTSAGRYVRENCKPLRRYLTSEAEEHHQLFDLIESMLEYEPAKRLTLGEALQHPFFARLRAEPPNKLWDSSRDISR
Chain of Cyclin-dependent kinase 15 (Homo sapiens) (Q96Q40 whole entry): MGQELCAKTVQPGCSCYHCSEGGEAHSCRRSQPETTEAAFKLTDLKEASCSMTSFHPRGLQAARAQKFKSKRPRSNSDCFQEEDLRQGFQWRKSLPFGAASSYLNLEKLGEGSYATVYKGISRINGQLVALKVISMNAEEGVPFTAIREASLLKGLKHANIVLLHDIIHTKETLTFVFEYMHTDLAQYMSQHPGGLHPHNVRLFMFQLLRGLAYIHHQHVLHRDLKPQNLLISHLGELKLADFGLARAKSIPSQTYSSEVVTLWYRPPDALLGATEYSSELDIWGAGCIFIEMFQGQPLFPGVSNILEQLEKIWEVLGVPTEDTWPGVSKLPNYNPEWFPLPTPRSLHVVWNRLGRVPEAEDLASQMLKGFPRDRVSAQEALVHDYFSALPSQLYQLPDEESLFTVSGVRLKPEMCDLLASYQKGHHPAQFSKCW
Chain of Eukaryotic translation initiation factor 2-alpha kinase 1 (Homo sapiens) (Q9BQI3 whole entry): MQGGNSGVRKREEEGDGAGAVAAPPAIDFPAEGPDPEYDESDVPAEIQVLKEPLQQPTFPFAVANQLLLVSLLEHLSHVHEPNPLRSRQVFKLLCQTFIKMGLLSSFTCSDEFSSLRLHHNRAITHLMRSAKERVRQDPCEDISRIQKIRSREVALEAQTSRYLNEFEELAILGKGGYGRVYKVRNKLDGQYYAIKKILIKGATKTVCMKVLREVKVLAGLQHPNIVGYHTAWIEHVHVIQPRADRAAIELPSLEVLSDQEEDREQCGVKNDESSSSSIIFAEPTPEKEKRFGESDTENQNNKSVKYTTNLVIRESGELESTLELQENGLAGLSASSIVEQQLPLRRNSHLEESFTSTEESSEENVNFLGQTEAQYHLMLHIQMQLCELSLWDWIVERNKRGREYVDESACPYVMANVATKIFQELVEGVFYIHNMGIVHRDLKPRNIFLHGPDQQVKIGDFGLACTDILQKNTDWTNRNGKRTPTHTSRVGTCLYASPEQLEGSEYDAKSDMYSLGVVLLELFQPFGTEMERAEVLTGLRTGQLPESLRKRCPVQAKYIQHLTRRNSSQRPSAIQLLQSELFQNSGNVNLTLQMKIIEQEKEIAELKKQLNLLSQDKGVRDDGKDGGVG
Chain of Calcium/calmodulin-dependent protein kinase type 1B (Homo sapiens) (Q6P2M8 whole entry): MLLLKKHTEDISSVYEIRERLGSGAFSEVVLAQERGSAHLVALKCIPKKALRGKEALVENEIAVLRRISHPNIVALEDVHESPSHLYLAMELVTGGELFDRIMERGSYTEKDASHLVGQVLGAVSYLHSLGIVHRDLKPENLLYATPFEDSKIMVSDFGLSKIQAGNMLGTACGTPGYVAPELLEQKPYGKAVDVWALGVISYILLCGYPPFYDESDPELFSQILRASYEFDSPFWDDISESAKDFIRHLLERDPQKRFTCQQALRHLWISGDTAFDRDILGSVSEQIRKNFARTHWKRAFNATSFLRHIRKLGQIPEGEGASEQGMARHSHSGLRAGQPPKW
Chain of Tyrosine-protein kinase Yes (Homo sapiens) (P07947 2-543 limits assumed): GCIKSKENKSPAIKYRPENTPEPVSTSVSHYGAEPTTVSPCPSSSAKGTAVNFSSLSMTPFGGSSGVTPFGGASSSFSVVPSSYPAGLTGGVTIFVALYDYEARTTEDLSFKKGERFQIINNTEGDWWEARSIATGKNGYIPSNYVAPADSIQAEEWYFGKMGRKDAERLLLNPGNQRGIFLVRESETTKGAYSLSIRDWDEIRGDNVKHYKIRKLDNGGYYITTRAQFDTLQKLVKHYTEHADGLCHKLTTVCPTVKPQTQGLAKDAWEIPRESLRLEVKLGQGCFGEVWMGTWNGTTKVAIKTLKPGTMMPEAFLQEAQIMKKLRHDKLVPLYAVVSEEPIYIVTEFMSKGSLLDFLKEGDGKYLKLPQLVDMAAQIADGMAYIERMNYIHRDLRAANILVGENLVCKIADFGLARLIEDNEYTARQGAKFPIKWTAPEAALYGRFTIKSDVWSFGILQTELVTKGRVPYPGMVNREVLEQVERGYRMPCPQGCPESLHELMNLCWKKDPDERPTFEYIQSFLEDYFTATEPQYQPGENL
Chain of Serine/threonine-protein kinase Sgk2 (Homo sapiens) (Q9HBY8 whole entry): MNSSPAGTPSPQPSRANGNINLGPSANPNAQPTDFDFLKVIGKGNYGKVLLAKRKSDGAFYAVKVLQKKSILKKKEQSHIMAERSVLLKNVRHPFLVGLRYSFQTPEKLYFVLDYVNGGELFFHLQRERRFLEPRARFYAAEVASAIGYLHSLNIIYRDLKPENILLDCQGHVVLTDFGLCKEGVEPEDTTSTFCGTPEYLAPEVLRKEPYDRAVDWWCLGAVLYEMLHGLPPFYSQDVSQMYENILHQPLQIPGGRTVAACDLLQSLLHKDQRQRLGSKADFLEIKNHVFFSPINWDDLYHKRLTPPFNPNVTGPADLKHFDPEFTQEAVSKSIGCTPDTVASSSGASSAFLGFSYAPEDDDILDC

With `CCS(=O)(=O)c1cc2cc(C[C@@](O)(CC(C)(C)c3ccc(F)cc3C(N)=O)C(F)(F)F)[nH]c2cn1` the residual activity [1] was 85%, the residual activity [2] was 80% and the residual activity [3] was 100%. It also gave a residual activity [4] of 77%, a residual activity [5] of 100% and an inhibition [6] of 19.5%. The residual activity [7] was 88%, the residual activity [8] was 79% and the residual activity [9] was 100%. It also gave a residual activity [10] of 100%, a residual activity [11] of 82% and a residual activity [12] of 100%. For the same molecule, the residual activity [13] was 0%, the residual activity [14] was 80% and the residual activity [15] was 94%. It also gave a residual activity [16] of 100%, a residual activity [17] of 59% and a residual activity [18] of 100%. For the same molecule, the residual activity [19] was 66%, the residual activity [20] was 100% and the residual activity [21] was 93%. It also gave a residual activity [22] of 88%, a residual activity [23] of 92% and an inhibition [24] of 3.48%. It also gave a residual activity [25] of 100%, a residual activity [26] of 84% and a residual activity [27] of 80%. It also gave an inhibition [28] of 11.2%, a residual activity [29] of 100% and a residual activity [30] of 46%. The residual activity [31] was 76%, the residual activity [32] was 72% and the residual activity [33] was 100%. It also gave a residual activity [34] of 78%, a residual activity [35] of 100% and a residual activity [36] of 85%. The residual activity [37] was 96%, the residual activity [38] was 92% and the residual activity [39] was 85%. For the same molecule, the residual activity [40] was 57%, the residual activity [41] was 100% and the residual activity [42] was 100%.
With `CCS(=O)(=O)c1cc2cc(C[C@](O)(CC(C)(C)c3ccc(F)cc3C(N)=O)C(F)(F)F)[nH]c2cn1` the residual activity [1] was 100%, the residual activity [2] was 100% and the residual activity [3] was 100%. The residual activity [4] was 100%, the residual activity [5] was 100% and the inhibition [6] was 11%. The residual activity [7] was 90%, the residual activity [8] was 100% and the residual activity [9] was 89%. For the same molecule, the residual activity [10] was 87%, the residual activity [11] was 100% and the residual activity [12] was 100%. For the same molecule, the residual activity [13] was 87%, the residual activity [14] was 82% and the residual activity [15] was 100%. The residual activity [16] was 100%, the residual activity [17] was 88% and the residual activity [18] was 100%. For the same molecule, the residual activity [19] was 100%, the residual activity [20] was 40% and the residual activity [21] was 100%. It also gave a residual activity [22] of 100%, a residual activity [23] of 100% and an inhibition [24] of -1.62%. The residual activity [25] was 96%, the residual activity [26] was 100% and the residual activity [27] was 74%. For the same molecule, the inhibition [28] was 4.75%, the residual activity [29] was 100% and the residual activity [30] was 97%. The residual activity [31] was 85%, the residual activity [32] was 93% and the residual activity [33] was 100%. For the same molecule, the residual activity [34] was 80%, the residual activity [35] was 100% and the residual activity [36] was 77%. For the same molecule, the residual activity [37] was 81%, the residual activity [38] was 100% and the residual activity [39] was 100%. It also gave a residual activity [40] of 90%, a residual activity [41] of 88% and a residual activity [42] of 99%.

From ChEMBL document CHEMBL4507277
